molecular target: T1, human PAR4 (Homo sapiens, UniProt Q96RI0); assay: PAR4 FLIPR assay: antagonism of agonist-peptide-induced calcium mobilization in PAR4-expressing HEK293 cells; format: cell-based; conditions: H-Ala-Phe(4-F)-[…]NH2-induced intracellular calcium mobilization, 11-point curves
T1 construct: expressed in transfected cells; host or cells: HEK293 PAR4 Clone 1.2A (BMS Arctic ID 383940)
T1 sequence (Q96RI0 18-385): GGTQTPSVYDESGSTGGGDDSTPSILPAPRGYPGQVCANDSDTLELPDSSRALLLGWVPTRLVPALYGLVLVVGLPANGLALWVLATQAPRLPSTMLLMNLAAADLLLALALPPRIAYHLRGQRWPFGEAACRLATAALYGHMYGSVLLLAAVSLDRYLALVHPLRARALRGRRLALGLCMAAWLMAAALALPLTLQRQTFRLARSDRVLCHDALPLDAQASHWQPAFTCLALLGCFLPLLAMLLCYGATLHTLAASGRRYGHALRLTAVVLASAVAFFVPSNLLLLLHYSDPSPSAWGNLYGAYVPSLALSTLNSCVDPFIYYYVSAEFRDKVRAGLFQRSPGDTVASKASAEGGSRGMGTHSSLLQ

| Structure (SMILES) | IC50 |
| --- | --- |
| COc1cnc2c(-c3nc4cc(F)c(O[C@@H](C)[C@@H](C)OC(=O)Nc5ccc(C(=O)NCC(C)(C)O)nc5)cc4s3)cc(C)cc2n1 [Example 460, (2R,3S)-3-((5-fluoro-2-(2-methoxy-7-methylquinoxalin-5-yl)benzo[d]thiazol-6-yl)oxy)butan-2-yl (6-((2-hydroxy-2-methylpropyl)carbamoyl)pyridin-3-yl)carbamate] | 0.9 nM |
| COc1cnc2c(-c3nc4cc(F)c(O[C@@H](C)[C@@H](C)OC(=O)Nc5ccnc(C(=O)NC[C@H](C)O)c5)cc4s3)cc(C)cc2n1 [Example 461, (2R,3S)-3-((5-fluoro-2-(2-methoxy-7-methylquinoxalin-5-yl)benzo[d]thiazol-6-yl)oxy)butan-2-yl (2-(((S)-2-hydroxypropyl)carbamoyl)pyridin-4-yl)carbamate] | 0.4 nM |
| COc1cnc2c(-c3nc4cc(F)c(O[C@@H](C)[C@@H](C)OC(=O)Nc5cnc(C(=O)NC[C@H](C)O)nc5)cc4s3)cc(C)cc2n1 [Example 462, (2R,3S)-3-((5-fluoro-2-(2-methoxy-7-methylquinoxalin-5-yl)benzo[d]thiazol-6-yl)oxy)butan-2-yl (2-(((S)-2-hydroxypropyl)carbamoyl)pyrimidin-5-yl)carbamate] | 0.2 nM |
| COc1cnc2c(-c3nc4cc(F)c(O[C@@H](C)[C@@H](C)OC(=O)Nc5cnc(C(=O)NCC6(O)CCC6)nc5)cc4s3)cc(C)cc2n1 [Example 463, (2R,3S)-3-((5-fluoro-2-(2-methoxy-7-methylquinoxalin-5-yl)benzo[d]thiazol-6-yl)oxy)butan-2-yl (2-(((1-hydroxycyclobutyl)methyl)carbamoyl)pyrimidin-5-yl)carbamate] | 0.7 nM |
| COc1cnc2c(-c3nc4cc(F)c(O[C@@H](C)[C@@H](C)OC(=O)Nc5ccc(C(=O)NCCC(C)(C)O)nc5)cc4s3)cc(C)cc2n1 [Example 464, (2R,3S)-3-((5-fluoro-2-(2-methoxy-7-methylquinoxalin-5-yl)benzo[d]thiazol-6-yl)oxy)butan-2-yl (6-((3-hydroxy-3-methylbutyl)carbamoyl)pyridin-3-yl)carbamate] | 1.5 nM |
| COc1cnc2c(-c3nc4cc(F)c(O[C@@H](C)[C@@H](C)OC(=O)Nc5ccnc(C(=O)NCC(C)(C)O)c5)cc4s3)cc(C)cc2n1 [Example 465, (2R,3S)-3-((5-fluoro-2-(2-methoxy-7-methylquinoxalin-5-yl)benzo[d]thiazol-6-yl)oxy)butan-2-yl (2-((2-hydroxy-2-methylpropyl)carbamoyl)pyridin-4-yl)carbamate] | 1.4 nM |
| CNC(=O)c1cc(NC(=O)O[C@H](C)[C@H](C)Oc2cc3sc(-c4cc(C)cc5nc(OC)cnc45)nc3cc2F)ccn1 [Example 466, (2R,3S)-3-((5-fluoro-2-(2-methoxy-7-methylquinoxalin-5-yl)benzo[d]thiazol-6-yl)oxy)butan-2-yl (2-(methylcarbamoyl)pyridin-4-yl)carbamate] | 0.7 nM |
| COc1cnc2c(-c3nc4cc(F)c(O[C@@H](C)[C@@H](C)OC(=O)Nc5ccnc(C(=O)N(C)C)c5)cc4s3)cc(C)cc2n1 [Example 467, (2R,3S)-3-((5-fluoro-2-(2-methoxy-7-methylquinoxalin-5-yl)benzo[d]thiazol-6-yl)oxy)butan-2-yl (2-(dimethylcarbamoyl)pyridin-4-yl)carbamate] | 1.9 nM |
| COc1cnc2c(-c3nc4cc(F)c(O[C@@H](C)[C@@H](C)OC(=O)Nc5cnc(C(=O)N(C)C)nc5)cc4s3)cc(C)cc2n1 [Example 468, (2R,3S)-3-((5-fluoro-2-(2-methoxy-7-methylquinoxalin-5-yl)benzo[d]thiazol-6-yl)oxy)butan-2-yl (2-(dimethylcarbamoyl)pyrimidin-5-yl)carbamate] | 0.8 nM |
| COc1cnc2c(-c3nc4cc(F)c(OC[C@@H](C)OC(=O)Nc5ccc(C(=O)NCC6(CO)COC6)nc5)cc4s3)cc(C)cc2n1 [Example 470, (R)-1-((5-fluoro-2-(2-methoxy-7-methylquinoxalin-5-yl)benzo[d]thiazol-6-yl)oxy)propan-2-yl (6-(((3-(hydroxymethyl)oxetan-3-yl)methyl)carbamoyl)pyridin-3-yl)carbamate] | 2.2 nM |

Reference: patent US12060347B2 (BRISTOL-MYERS SQUIBB COMPANY, priority 2016, dated 2024)
